# Test results reported in ChEMBL document CHEMBL1201862, “PubChem BioAssay data set” (2004).
# Activity calls are given as the source filed them. Rule as the data show it, for most assays here: actives have a measured EC50 and inactives only a lower limit.
# What was measured:
# [1] = biological target: T1, Corticotropin-releasing factor receptor 2/Corticotropin-releasing factor-binding protein (Homo sapiens, UniProt P24387+Q13324); test: Dose Response confirmation of uHTS hits for small molecule antagonists of the CRF-binding protein and CRF-R2 receptor complex.; type: functional; details: read-out: IC50_Mean
# T1 sequence (Q13324 whole entry): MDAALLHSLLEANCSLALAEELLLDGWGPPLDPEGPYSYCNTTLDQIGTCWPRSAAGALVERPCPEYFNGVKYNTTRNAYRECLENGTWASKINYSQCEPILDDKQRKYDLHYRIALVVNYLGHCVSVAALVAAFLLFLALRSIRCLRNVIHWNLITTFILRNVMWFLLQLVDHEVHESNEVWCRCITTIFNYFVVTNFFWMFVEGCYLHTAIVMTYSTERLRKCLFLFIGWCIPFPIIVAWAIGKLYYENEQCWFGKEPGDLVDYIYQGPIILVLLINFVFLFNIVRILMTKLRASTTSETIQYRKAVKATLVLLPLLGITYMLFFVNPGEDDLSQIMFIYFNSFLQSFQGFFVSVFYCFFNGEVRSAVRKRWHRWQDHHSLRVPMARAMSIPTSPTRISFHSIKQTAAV
# T1 sequence (P24387 whole entry): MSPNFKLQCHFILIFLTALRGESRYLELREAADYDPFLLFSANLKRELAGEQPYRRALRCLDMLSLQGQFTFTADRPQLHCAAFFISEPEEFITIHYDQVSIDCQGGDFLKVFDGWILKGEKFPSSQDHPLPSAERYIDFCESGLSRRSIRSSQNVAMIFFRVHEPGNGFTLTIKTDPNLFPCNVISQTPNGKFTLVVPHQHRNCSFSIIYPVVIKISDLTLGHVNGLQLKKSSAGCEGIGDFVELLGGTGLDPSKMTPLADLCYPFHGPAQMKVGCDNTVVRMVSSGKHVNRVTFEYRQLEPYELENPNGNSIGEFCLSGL
# [2] = biological target: T1, Corticotropin-releasing factor receptor 2/Corticotropin-releasing factor-binding protein; test: activators of CRF receptor 2 with binding protein – uHTS hits, confirmation (AID 602473); type: functional; details: read-out: EC50_Mean
# cells [3] = type: functional, cell-based
# cells [4] = type: functional, cell-based; remark: listed apart in the source
# cells [5] = type: functional
# [6] = biological target: FAD-linked sulfhydryl oxidase ALR (Homo sapiens, UniProt P55789); test: inhibitors of human ALR sulfhydryl oxidase, dose response, biochemical, H2O2 detection, luminescence, cherry-pick (AID 493248)
# FAD-linked sulfhydryl oxidase ALR, sequence (P55789 whole entry): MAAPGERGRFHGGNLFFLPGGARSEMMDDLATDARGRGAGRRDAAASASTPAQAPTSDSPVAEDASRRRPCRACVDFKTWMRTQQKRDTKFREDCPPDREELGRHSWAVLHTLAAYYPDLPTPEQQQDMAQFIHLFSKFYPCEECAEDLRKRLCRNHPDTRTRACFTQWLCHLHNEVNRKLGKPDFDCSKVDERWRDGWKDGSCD
# [7] = inhibitors of intracellular T. cruzi replication, confirmation, NIH3T3 host cells, beta-gal luminescence (AID 2044); type: functional, cell-based;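 also: intracellular parasites grown in NIH/3T3 mouse fibroblasts as host cells; luminescent beta-galactosidase reporter signal from transgenic T. cruzi replicating inside host cells; inhibitors lower the luminescence signal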
# [8] = cytotoxicity toward NIH3T3 fibroblasts, dose response, counter-screen, cell-based, ATP luminescence, mouse fibroblasts (AID 2010); type: functional;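 also: cells exposed to compound for about 90 hours before reading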
# [9] = biological target: T2, Ubiquitin-conjugating enzyme E2 N (Homo sapiens, UniProt P61088); type: functional;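 also: Dose-response confirmation in a TR-FRET assay detecting UBC13-driven polyubiquitin chain formation, inhibition measured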
# T2 sequence (P61088 whole entry): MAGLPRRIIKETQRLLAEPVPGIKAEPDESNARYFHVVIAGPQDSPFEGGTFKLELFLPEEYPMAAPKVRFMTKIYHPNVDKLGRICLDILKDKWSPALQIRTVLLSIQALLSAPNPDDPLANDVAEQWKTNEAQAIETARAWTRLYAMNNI
# [10] = Luminescence Cell-Based Dose Response HTS to Identify Activators of Luciferase Translation or Activity in H4 […] Cells. [Related pubchem assays: 1829 (Project Summary), 1814 (Primary HTS)]; type: functional
# H4 = test: Luminescence Cell-Based Dose Response HTS to Identify Activators of 5'UTR Stem-Loop Driven Prion Protein mRNA Translation in H4 Neuroglioblastoma Cells. [Related pubchem assays: 1829 (Project Summary), 1814 (Primary HTS)]; type: functional; details: Homo sapiens
# [11] = Luminescence Cell-Based Dose Confirmation HTS to Identify Activators of 5'UTR Stem-Loop Driven Alpha-Synuclein mRNA Translation in H4 Neuroglioblastoma Cells. [Related pubchem assays: 1829 (Project Summary), 1814 (Primary HTS)]; type: functional
# [12] = inhibitors of HIV Env-driven cell fusion, dose response, cherry-pick (AID 652057); type: functional, cell-based
# [13] = inhibitors of clade B AD8 Env fusion, dose response, cell-based, cherry-pick (AID 652062); type: functional;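 also: luciferase signal from cell-cell fusion driven by HIV-1 clade B AD8 Env; potency is for inhibitors of fusion seen as a drop in luminescence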
# Streptococcus = test: Group A Streptococcus viability loss, dose response, counter-screen for streptokinase expression inhibitor project, luminescence, BacTiterGlo (AID 1915); type: functional, organism-based;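 also: potency for reduction of bacterial viability or growth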
# [14] = tested on: Streptococcus sp. 'group A'; test: growth inhibition of control SK(-) GAS strain, dose response, counter-screen for streptokinase expression inhibitor project, luminescence, kanamycin, BacTiterGlo, confirmation (AID 1900); type: functional, organism-based
# [15] = intracellular Trypanosoma cruzi inhibitors in host cells – cell-based, plate reader, cherry-pick samples, set 3, dose response (AID 651818); type: functional;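 also: compounds incubated with infected cells for about four days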
# [16] = NIH:OVCAR-3 ovarian cancer cell cytotoxicity, dose response, PAX8 inhibitor project, plate reader, dry powder samples (AID 743044); type: functional, cell-based
# Paired box protein Pax-8 = Paired box protein Pax-8 (Homo sapiens, UniProt Q06710); test: inhibitors of PAX8-driven TPO luciferase reporter, dose response, RMG-I cells, cherry-pick (AID 687027); type: functional, cell-based;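 also: luciferase reporter driven by Pax8 target thyroperoxidase promoter measured by SteadyGlo luminescence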
# Paired box protein Pax-8, sequence (Q06710 whole entry): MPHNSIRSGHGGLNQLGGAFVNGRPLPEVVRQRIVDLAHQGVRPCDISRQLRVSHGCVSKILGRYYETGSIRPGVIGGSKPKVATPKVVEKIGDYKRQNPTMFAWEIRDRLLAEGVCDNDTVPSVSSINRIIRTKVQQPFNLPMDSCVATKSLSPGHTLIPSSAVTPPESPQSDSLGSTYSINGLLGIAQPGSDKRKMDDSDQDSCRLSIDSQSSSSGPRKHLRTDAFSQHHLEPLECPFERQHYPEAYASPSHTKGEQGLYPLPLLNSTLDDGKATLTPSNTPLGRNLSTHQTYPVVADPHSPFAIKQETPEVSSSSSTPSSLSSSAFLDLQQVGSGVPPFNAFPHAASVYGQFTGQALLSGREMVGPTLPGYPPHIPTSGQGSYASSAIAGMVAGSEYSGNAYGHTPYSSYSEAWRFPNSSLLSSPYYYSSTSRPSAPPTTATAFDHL
smiles,measurement,setting,value
CCC(C)NC(=O)CSc1nc2ccccc2c(=O)n1CCCC(=O)NCC1CCCO1 (stereo unspecified),IC50,[1],> 47.1 µM (inactive)
same,EC50,[2],> 53 µM (inactive)
O=C(c1ccc(OC2CCN(CCc3ccccc3)CC2)cc1)N1CCCC(CCCO)C1 (stereo unspecified),EC50,cells [3],> 350 µM (not active)
same,EC50,cells [4],> 350 µM (not active)
Cc1nnc(NC(=O)c2ccc3ccccc3c2)o1,IC50,cells [5],1.64 µM (active)
COC(=O)c1c(C(=O)OC)c(-c2ccc(F)cc2)n2c1CSC2,AC50,[6],0.218 µM (active)
O=C(O)C(c1ccccc1)C1(O)CCCC1 (stereo unspecified),IC50,[1],> 47.1 µM (inactive)
same,EC50,[2],> 53 µM (inactive)
Cc1ccc(S(=O)(=O)N(C)CC(=O)NCCCn2ccnc2)cc1,EC50,cells [3],> 350 µM (not active)
same,EC50,cells [4],> 350 µM (not active)
CC(C)OC(=O)c1cc(C(=O)c2cc(Cl)ccc2O)coc1=N,IC50,cells [5],23.2 µM (active)
CN(C)c1ccc(CN(C(=O)c2ccccc2Br)C2CCS(=O)(=O)C2)cc1 (stereo unspecified),AC50,[6],1.88 µM (active)
c1ccc2cc(OCCCn3ccnc3)ccc2c1,EC50,[7],1.01 µM (active)
same,IC50,cells [5],42.5 µM (active)
same,EC50,[8],> 60 µM (not active)
COC(=O)c1cc(-c2cccs2)nc2ccccc12,IC50,[9],> 20 µM (inactive)
N#C/C(=C(/O)c1ccc(F)cc1)c1nc2ccccc2s1,EC50,cells [3],> 350 µM (not active)
same,EC50,cells [4],7.41 µM (active)
O=C(Cn1c(Cc2ccccc2)nc2ccccc21)NCc1ccc2c(c1)OCO2,EC50,cells [3],> 350 µM (not active)
same,EC50,cells [4],> 350 µM (not active)
Cc1ccc(C(=O)NCCN2C3=NC[C@H](Cc4ccc(O)cc4)N3C[C@H]2Cc2ccc(O)cc2)cc1Br,IC50,[9],> 20 µM (inactive)
COc1ccc(N2CCN(c3ccc(C(=O)O)cc3[N+](=O)[O-])CC2)cc1,AC50,[6],5.03 µM (active)
Cc1ccccc1C(=O)NN1CC(C(=O)OCc2ccc(Cl)c(Cl)c2)CC1=O (stereo unspecified),IC50,cells [5],22.2 µM (active)
Cc1ccc(NC2=NC(=O)c3cccc([N+](=O)[O-])c32)cc1,EC50,[10],26.7 µM (active)
same,EC50,H4,26.8 µM (active)
same,EC50,[11],77.8 µM (active)
Cc1nn(-c2cccc([N+](=O)[O-])c2)c(N)c1-c1ccccc1,IC50,[1],> 47.1 µM (inactive)
same,EC50,[2],> 53 µM (inactive)
CC(=O)N1CCOc2ccc(S(=O)(=O)N3CCCCC3)cc21,EC50,[10],> 120 µM (not active)
same,EC50,H4,> 120 µM (not active)
same,EC50,[11],> 120 µM (not active)
CCCC(=O)Nc1ccc(-c2csc(NNC(C)=O)n2)cc1,AC50,[6],0.859 µM (active)
COc1ccc(OC2C(=O)N(Cc3ccc(F)cc3)C2c2cc(OC)c(OC)c(OC)c2)cc1 (stereo unspecified),IC50,[1],> 47.1 µM (inactive)
same,EC50,[2],> 53 µM (inactive)
CN(Cc1cccs1)C(=O)CSc1nc(N)cc(N)n1,EC50,cells [3],> 350 µM (not active)
same,EC50,cells [4],> 350 µM (not active)
CN1C(=O)C2(c3ccccc31)N(C)CC(c1ccccc1)C21SC(=S)N(Cc2ccco2)C1=O (stereo unspecified),AC50,[12],46.4 µM (active)
same,AC50,[13],36.5 µM (active)
O=C(NCCCC1CCCC1)C1CCC(=O)N(Cc2cccc(F)c2)C1 (stereo unspecified),EC50,[10],> 120 µM (not active)
same,EC50,H4,> 120 µM (not active)
same,EC50,[11],> 120 µM (not active)
O=C(Nc1nc(-c2ccccn2)cs1)c1ccc(S(=O)(=O)N2CCCCC2)cc1,EC50,Streptococcus,2.56 µM (active)
same,EC50,[14],0.879 µM (active)
same,EC50,cells [3],13.4 µM (active)
same,EC50,cells [4],> 350 µM (not active)
Cn1c(CO)nc2c3ccccc3ccc21,EC50,cells [3],> 350 µM (not active)
same,EC50,cells [4],> 350 µM (not active)
CCOc1ccc(CCNC(=O)C2CCCN(c3ncnc4c3nc3n4CCCCC3)C2)cc1 (stereo unspecified),IC50,[1],> 47.1 µM (inactive)
same,EC50,[2],> 53 µM (inactive)
CSc1ccccc1N=C(S)NCc1ccc(Cl)cc1,EC50,[10],5.76 µM (active)
same,EC50,H4,9.9 µM (active)
same,EC50,[11],4.54 µM (active)
CCCCN(C)CCCNC(=O)c1cc(-c2cccs2)nc2ccccc12,IC50,[9],> 20 µM (inactive)
same,EC50,[7],0.183 µM (active)
same,EC50,[8],> 60 µM (not active)
CSc1ccccc1OCc1cc(C(=O)NCc2csc(C(C)C)n2)no1,IC50,[1],> 47.1 µM (inactive)
same,EC50,[2],> 53 µM (inactive)
Cc1ccc(-c2nc3nc4ccccc4nc3n2Cc2ccco2)cc1,EC50,[10],13.2 µM (active)
same,EC50,[11],21.9 µM (active)
CCC(C)Nc1nc2c(c(=O)n(C)c(=O)n2C)n1Cc1ccc(F)cc1 (stereo unspecified),AC50,[6],2.09 µM (active)
CC1=CC2=NC(=O)/C(=C\c3ccc(OC(=O)c4ccco4)cc3)C(=N)N2O1,IC50,cells [5],21.8 µM (active)
CNC(=O)C1CCN(S(=O)(=O)c2c(C)noc2/C=C/c2ccccc2F)CC1,EC50,[10],12.8 µM (active)
same,EC50,H4,> 120 µM (not active)
same,EC50,[11],21.8 µM (active)
CCC(C)[C@H]1CN=C(N)N1CCc1cc(C(F)(F)F)cc(C(F)(F)F)c1 (stereo partly specified),IC50,[9],> 20 µM (inactive)
Nc1ncc([N+](=O)[O-])cc1S(=O)(=O)c1ccccc1,IC50,[9],> 20 µM (inactive)
C#CCOCCOCCOCCNc1nc(N2CCN(C(=O)[C@H](CCCCN)n3cc([C@@H](N)[C@H](C)CC)nn3)CC2)nc(N2CCN(C(=O)[C@H](CCC(=O)O)n3cc([C@@H](N)CCCCN)nn3)CC2)n1,IC50,[9],> 20 µM (inactive)
C[C@@H]1CCCCO[C@@H](CN(C)Cc2ccc(Cl)c(Cl)c2)[C@@H](C)CN([C@H](C)CO)C(=O)c2cc(NC(=O)CCC(F)(F)F)ccc2O1,AC50,[15],3.1 µM (active)
CN(C)c1ccc(/C(=N\O)c2ccccc2)cc1,AC50,[6],1.64 µM (active)
same,IC50,[1],> 47.1 µM (inactive)
same,EC50,[2],> 53 µM (inactive)
CC1(C)Cc2c(sc(/N=C/N3CCCC3)c2C#N)C(C)(C)N1,IC50,[1],> 47.1 µM (inactive)
same,EC50,[2],> 53 µM (inactive)
C[C@@H]1CN([C@@H](C)CO)C(=O)c2cccc(NS(=O)(=O)c3ccccc3)c2O[C@H]1CN(C)Cc1ccc(-c2ccccc2)cc1,AC50,[15],1.39 µM (active)
C[C@H](CO)N1C[C@H](C)[C@H](CN(C)Cc2ccc(C(F)(F)F)cc2)Oc2ccc(NS(=O)(=O)c3ccc(Cl)cc3)cc2C1=O,AC50,[15],4.5 µM (active)
C[C@@H]1CN([C@@H](C)CO)C(=O)c2cccc(NC(=O)Nc3ccc(C(F)(F)F)cc3)c2O[C@H]1CN(C)C(=O)Nc1ccc(C(F)(F)F)cc1,AC50,[15],6.06 µM (active)
C[C@@H]1CCCCO[C@@H](CN(C)Cc2ccc(Cl)c(Cl)c2)[C@@H](C)CN([C@H](C)CO)C(=O)c2cc(NC(=O)Nc3ccc(C(F)(F)F)cc3)ccc2O1,AC50,[15],2.84 µM (active)
COc1ccc(S(=O)(=O)Nc2ccc3c(c2)CC(=O)N([C@H](C)CO)C[C@@H](C)[C@@H](CN(C)Cc2ccc(Cl)c(Cl)c2)O3)cc1,AC50,[15],3.78 µM (active)
C[C@H]1CN([C@@H](C)CO)C(=O)Cc2cc(NC(=O)NC3CCCCC3)ccc2O[C@@H]1CN(C)Cc1ccc(Cl)c(Cl)c1,AC50,[15],7.18 µM (active)
C[C@@H]1CCCCO[C@H](CN(C)Cc2ccncc2)[C@H](C)CN([C@H](C)CO)C(=O)c2cc(NC(=O)Nc3ccc(C(F)(F)F)cc3)ccc2O1,AC50,[16],35.4 µM (active)
same,AC50,Paired box protein Pax-8,7.43 µM (active)
CN(C)c1ccc(/C=N/NC(=S)NCc2ccco2)cc1,EC50,[10],8.41 µM (active)
same,EC50,H4,> 120 µM (not active)
same,EC50,[11],15.3 µM (active)
COc1ccc(N2/C(=N/C(=O)CCC3CCCC3)SC3CS(=O)(=O)CC32)cc1 (stereo unspecified),EC50,cells [3],> 350 µM (not active)
same,EC50,cells [4],> 350 µM (not active)
